Test results as given in patent US11702422B2, “Imidazopyridazines as modulators of IL-17” (Janssen Pharmaceutica NV, priority 2020, dated 2023).

Experiments:
[1] = biological target: IL-17A(FLAG-Tagged): IL-17RA(His-Tagged) (Homo sapiens, UniProt Q16552, K93Q); experiment: IL-17A(FLAG-Tagged): IL-17RA(His-Tagged) Binding Disruption Eu-HTRF Assay; settings: IL-17A/IL-17RA binding disruption, simple average if tested more than once
In short: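 IC50 comes from a one-site competition fit of the HTRF 665/620 nm ratio. Compound dilutions (2-fold, 22 points) were held 1 h rt with FLAG-tagged IL-17A dimer, then His-tagged IL-17RA plus Eu-cryptate anti-FLAG and D2 anti-His antibodies were added for 2 h rt.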

[2] = system: IL-17A-induced G-CSF production in human normal keratinocyte (NHK); experiment: NHK Assay: IL-17A-induced G-CSF production in human normal keratinocytes; assay type: cell-based; settings: 24 h, adult normal human keratinocytes, IL-17A 5 ng/mL, simple average if tested more than once
In short: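 Inhibition of IL-17A-driven G-CSF release is measured in adult keratinocytes stimulated for 24 h at 37° C with 5 ng/mL human IL-17A that had been pre-incubated with compound for 1 h. IC50 comes from HTRF G-CSF levels; cell viability is checked in parallel by luminescent ATP assay.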

Chain of UniProt Q16552 (Q16552 with tags, fused parts or gaps K93Q): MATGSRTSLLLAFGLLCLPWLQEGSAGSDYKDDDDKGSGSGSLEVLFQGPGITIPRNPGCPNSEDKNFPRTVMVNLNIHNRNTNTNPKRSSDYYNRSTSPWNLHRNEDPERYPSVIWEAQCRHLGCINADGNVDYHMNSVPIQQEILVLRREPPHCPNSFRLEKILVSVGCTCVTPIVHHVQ

| SMILES | IC50 [1] [nM] | IC50 ([2]; Homo sapiens, Keratinocyte) [nM] | IC50 [2] [nM] |
| --- | --- | --- | --- |
| Cn1ccnc1C(=O)N[C@H](c1cn2ncc([C@H](NC(=O)CCC(F)(F)F)C3CC3)cc2n1)C1CCC(F)(F)CC1 [Example 469, N—((S)-(7-((R)-Cyclopropyl(4,4,4-trifluorobutanamido)methyl)imidazo[1,2-b]pyridazin-2-yl)(4,4-difluorocyclohexyl)methyl)-1-methyl-1H-imidazole-2-carboxamide] | 1200 | > 20000 | – |
| O=C(CCC(F)(F)F)N[C@@H](c1cnn2cc([C@@H](NC(=O)c3nnn(CC4CC4)c3C(F)(F)F)C3CCC(F)(F)CC3)nc2c1)C1CC1 [Example 108, N—((S)-(7-((R)-Cyclopropyl(4,4,4-trifluorobutanamido)methyl)imidazo[1,2-b]pyridazin-2-yl)(4,4-difluorocyclohexyl)methyl)-1-(cyclopropylmethyl)-5-(trifluoromethyl)-1H-1,2,3-triazole-4-carboxamide] | 910 | > 20000 | – |
| O=C(CCC(F)(F)F)N[C@@H](c1cnn2cc([C@@H](NC(=O)[C@H]3C[C@@H]3C(F)(F)F)C3CCC(F)(F)CC3)nc2c1)C1CC1 (relative stereo) [Example 149, (Trans-1S*,2S*)—N—((S)-(7-((R)-Cyclopropyl(4,4,4-trifluorobutanamido)methyl)imidazo[1,2-b]pyridazin-2-yl)(4,4-difluorocyclohexyl)methyl)-2-(trifluoromethyl)cyclopropane-1-carboxamide] | 240 | 510 | – |
| CC(C)(C)OC[C@H](NC(=O)c1nonc1C1CC1)c1cn2ncc([C@H](NC(=O)CC3CC(F)(F)C3)C3CC3)cc2n1 [Example 319, N—((R)-2-(tert-Butoxy)-1-(7-((R)-cyclopropyl(2-(3,3-difluorocyclobutyl)acetamido)methyl)imidazo[1,2-b]pyridazin-2-yl)ethyl)-4-cyclopropyl-1,2,5-oxadiazole-3-carboxamide] | 66 | 330 | – |
| Cc1nonc1C(=O)N[C@H](c1cn2ncc([C@H](NC(=O)C(F)CC3CC3)C3CC3)cc2n1)C1CCC(F)(F)CC1 (single isomer, unassigned) [Example 345, N—((S)-(7-((R)-Cyclopropyl((S*)-3-cyclopropyl-2-fluoropropanamido)methyl)imidazo[1,2-b]pyridazin-2-yl)(4,4-difluorocyclohexyl)methyl)-4-methyl-1,2,5-oxadiazole-3-carboxamide] | 180 | – | 670 |
| Cc1noc(C(=O)N[C@H](c2cn3ncc([C@H](NC(=O)CCC(F)(F)F)C4CC4)cc3n2)C2CCC(F)(F)CC2)c1C [Example 473, N—((S)-(7-((R)-Cyclopropyl(4,4,4-trifluorobutanamido)methyl)imidazo[1,2-b]pyridazin-2-yl)(4,4-difluorocyclohexyl)methyl)-3,4-dimethylisoxazole-5-carboxamide] | 8500 | > 20000 | – |
| O=C(CC1CC(F)(F)C1)N[C@@H](c1cnn2cc([C@@H](NC(=O)c3nonc3O)C3CCC(F)(F)CC3)nc2c1)C1CC1 [Example 412, N—((S)-(7-((R)-Cyclopropyl(2-(3,3-difluorocyclobutyl)acetamido)methyl)imidazo[1,2-b]pyridazin-2-yl)(4,4-difluorocyclohexyl)methyl)-4-hydroxy-1,2,5-oxadiazole-3-carboxamide] | > 50000 | > 20000 | – |
| Cc1nonc1C(=O)N[C@H](c1cn2ncc([C@H](NC(=O)[C@@H]3CC[C@H]3F)C3CC3)cc2n1)C1CCC(F)(F)CC1 (relative stereo) [Example 335, N—((S)-(7-((R)-Cyclopropyl((1S*,2R*)-2-fluorocyclobutane-1-carboxamido)methyl)imidazo[1,2-b]pyridazin-2-yl)(4,4-difluorocyclohexyl)methyl)-4-methyl-1,2,5-oxadiazole-3-carboxamide] | 7500 | > 20000 | – |
| CC(C)n1nccc1C(=O)N[C@H](c1cn2ncc([C@H](NC(=O)CCC3CC3(F)F)C3CC3)cc2n1)C1CCC(F)(F)CC1 (single isomer, unassigned) [Example 270, N—((S)-(7-((R)-Cyclopropyl(3-((R*)-2,2-difluorocyclopropyl)propanamido)methyl)imidazo[1,2-b]pyridazin-2-yl)(4,4-difluorocyclohexyl)methyl)-1-isopropyl-1H-pyrazole-5-carboxamide] | 150 | 38 | – |
| Cc1nonc1C(=O)N[C@H](c1cn2ncc([C@H](NC(=O)COC3CC3)C3CC3)cc2n1)C1CCC(F)(F)CC1 [Example 306, N—((S)-(7-((R)-(2-Cyclopropoxyacetamido)(cyclopropyl)methyl)imidazo[1,2-b]pyridazin-2-yl)(4,4-difluorocyclohexyl)methyl)-4-methyl-1,2,5-oxadiazole-3-carboxamide] | 210 | 1500 | – |
| O=C(CCC(F)(F)F)NC(c1cnn2cc([C@@H](NC(=O)c3cnn(CCC(F)(F)F)c3)C3CCC(F)(F)CC3)nc2c1)C1CC1 (single isomer, unassigned) [Example 7, N—((S)-(7-((S*)-Cyclopropyl(4,4,4-trifluorobutanamido)methyl)imidazo[1,2-b]pyridazin-2-yl)(4,4-difluorocyclohexyl)methyl)-1-(3,3,3-trifluoropropyl)-1H-pyrazole-4-carboxamide] | 4900 | – | > 20000 |

Further lines, with some results ahead:

| IC50 [1] [nM] | SMILES | IC50 ([2]; Homo sapiens, Keratinocyte) [nM] | IC50 [2] [nM] |
| --- | --- | --- | --- |
| 88 | CC(C)n1nccc1C(=O)N[C@H](c1cn2ncc([C@H](NC(=O)CC(C)C(F)(F)F)C3CC3)cc2n1)C1CCC(F)(F)CC1 (single isomer, unassigned) [Example 121, N—((S)-(7-((R)-Cyclopropyl((R*)-4,4,4-trifluoro-3-methylbutanamido)methyl)imidazo[1,2-b]pyridazin-2-yl)(4,4-difluorocyclohexyl)methyl)-1-isopropyl-1H-pyrazole-5-carboxamide] | 110 | – |
| 46 | O=C(CCC(F)(F)F)N[C@@H](c1cnn2cc([C@@H](NC(=O)c3conc3CC3CC3)C3CCC(F)(F)CC3)nc2c1)C1CC1 [Example 236, N—((S)-(7-((R)-Cyclopropyl(4,4,4-trifluorobutanamido)methyl)imidazo[1,2-b]pyridazin-2-yl)(4,4-difluorocyclohexyl)methyl)-3-(cyclopropylmethyl)isoxazole-4-carboxamide] | 360 | – |
| 86 | Cc1nonc1C(=O)N[C@H](c1cn2ncc([C@H](NC(=O)CC34CC(F)(C3)C4)C3CC3)cc2n1)C1CCC(F)(F)CC1 [Example 272, N—((S)-(7-((R)-Cyclopropyl(2-(3-fluorobicyclo[1.1.1]pentan-1-yl)acetamido)methyl)imidazo[1,2-b]pyridazin-2-yl)(4,4-difluorocyclohexyl)methyl)-4-methyl-1,2,5-oxadiazole-3-carboxamide] | 290 | – |
| 110 | CC(C)n1nccc1C(=O)N[C@H](c1cn2ncc([C@H](NC(=O)CC(C)C(F)(F)F)C3CC3)cc2n1)C1CCC(F)(F)CC1 (single isomer, unassigned) [Example 122, N—((S)-(7-((R)-Cyclopropyl((S*)-4,4,4-trifluoro-3-methylbutanamido)methyl)imidazo[1,2-b]pyridazin-2-yl)(4,4-difluorocyclohexyl)methyl)-1-isopropyl-1H-pyrazole-5-carboxamide] | – | 220 |
| 35 | N#CC1([C@@H](NC(=O)C[C@H]2CC2(F)F)c2cnn3cc([C@@H](NC(=O)c4nonc4C4CC4)C4CCC(F)(F)CC4)nc3c2)CCC1 (single isomer, unassigned) [Example 448] | 12 | – |
| 74 | Cc1nonc1C(=O)N[C@H](c1cn2ncc(C(NC(=O)CC3CC(F)(F)C3)C(C)C)cc2n1)C1CCC(F)(F)CC1 (single isomer, unassigned) [Example 513, N—((S)-(7-((S*)-1-(2-(3,3-Difluorocyclobutyl)acetamido)-2-methylpropyl)imidazo[1,2-b]pyridazin-2-yl)(4,4-difluorocyclohexyl)methyl)-4-methyl-1,2,5-oxadiazole-3-carboxamide] | 150 | – |
| 150 | O=C(CCC(F)(F)F)N[C@@H](c1cnn2cc([C@@H](NC(=O)c3cnn(CC4CC4(F)F)n3)C3CCC(F)(F)CC3)nc2c1)C1CC1 (stereo partly drawn) [Example 93, N—((S)-(7-((R)-Cyclopropyl(4,4,4-trifluorobutanamido)methyl)imidazo[1,2-b]pyridazin-2-yl)(4,4-difluorocyclohexyl)methyl)-2-((2,2-difluorocyclopropyl)methyl)-2H-1,2,3-triazole-4-carboxamide] | 280 | – |
| 130 | O=C(CCC(F)(F)F)N[C@@H](c1cnn2cc([C@@H](NC(=O)c3cccc(OCC4CC4)c3)C3CCC(F)(F)CC3)nc2c1)C1CC1 [Example 180, N—((S)-(7-((R)-Cyclopropyl(4,4,4-trifluorobutanamido)methyl)imidazo[1,2-b]pyridazin-2-yl)(4,4-difluorocyclohexyl)methyl)-3-(cyclopropylmethoxy)benzamide] | 450 | – |
| 36 | CC(C)c1nonc1C(=O)N[C@H](c1cn2ncc([C@H](NC(=O)CC34CC(F)(C3)C4)C3CC3)cc2n1)C1CCC(F)(F)CC1 [Example 279, N—((S)-(7-((R)-Cyclopropyl(2-(3-fluorobicyclo[1.1.1]pentan-1-yl)acetamido)methyl)imidazo[1,2-b]pyridazin-2-yl)(4,4-difluorocyclohexyl)methyl)-4-isopropyl-1,2,5-oxadiazole-3-carboxamide] | 64 | – |
